From patent US5189144A, “Human calpastatin-like polypeptide” (Takara Shuzo Co., Ltd., priority 1989, dated 1993)
“Also recorded” adds a separate entry of the source. No end group written: not given here.

What follows are sequences tested on calpain (assay: assay of calpain inhibition (casein substrate, acid-soluble fraction read at 280 nm)). Settings: 15 min at 30° C. after adding calcium chloride, absorbance at 280 nm of the supernatant, profiles only in FIGS. 3 and 4.
Format: biochemical
Protocol: Confirmation of expression can be done by the measurement of the inhibition of calpain, as in the measurement done with casein as the substrate, with extraction from a culture fluid of E. coli, and measurement of the decrease in the acid-soluble fraction by the use of spectroscopy.
The assay of calpain inhibition was done as described below (A. Kitahara et al., J. Biochem., 95, 1759-1766, 1984). First, 10 μl of the sample 2.5 μl of calpain at the concentration of 1 mg/ml, 40 μl of 2% casein in imidazole, and 20 μl of crysteine at the concentration of 6 mg/ml were mixed together, giving a total volume of 180 μl. Next, the mixture was treated for 5 min at 30° C., after which 20 μl of 50 mM calcium chloride was added, and the mixture was incubated for 15 min at 30° C. Then 200 μl of 5% trichloroacetic acid was added to stop the reaction, and the mixture was centrifuged at 12,000 rpm for 10 min. The supernatant was obtained, and its absorbance at 280 nm was measured, from which the inhibitory activity toward calpain was calculated.

Row | Sequence | inhibitory activity toward calpain
1 | TYIEELGKREVTIPPKYR [polypeptide of 18 amino acids] | can inhibit calpain; also recorded: still has activity; also recorded: inhibited calpain
2 | TYIEELGKREVTIPPKYRELL [polypeptide of 21 amino acids] | can inhibit calpain; also recorded: had calpastatin-like activity
3 | DPMSSTYIEELGKREVTIPPKYRELL [polypeptide of 26 amino acids] | can inhibit calpain; also recorded: had calpastatin-like activity
4 | YIEELGKREVTIPPKYR [polypeptide with 17 amino acids, reference compound] | almost undetectable
